Here are results for 2 molecules from patent US6812036B2 (priority 2000, dated 2004).

The subject of this experiment is Antibody #1. It counts as binding, mice.

With `CC(=O)OC[C@]12[C@H](O)C(=O)C(C)=C[C@H]1O[C@@H]1[C@H](O)C[C@@]2(C)[C@]12CO2` [15-acetyl-deoxynivalenol], the cross-reactivity was determined as 358%. With `CC(=O)OC[C@]12C[C@H](OC(=O)CC(C)C)C(C)=C[C@H]1O[C@@H]1[C@H](O)[C@@H](O)[C@@]2(C)[C@]12CO2` [HT-2 toxin], the cross-reactivity is given as 9%.
